In data set [1] the test system is arachidonic acid-induced ear swelling. Description: Arachidonic acid (AA) murine skin (ear) inflammation model, topical administration. The conditions noted are these: for anti-inflammatory activity (in words): arachidonic acid murine skin inflammation model. The data set is classed as in vivo. As to the method:
Using the arachidonic acid (AA), murine skin inflammation model, described by Harris, R. R. et al. (Skin Pharmacol (1990) 3:2940) the anti-inflammatory activity of 1-[3-O-(18-β-Glycyrrhetinic acid)]-2-(α-L-C-methylfucopyranose)-2',3'-propanediol (5) was tested. For comparison, 18-β-glycyrrhetinic acid was also tested. All compounds were dissolved at 100 mg/mL in methanol or chloroform (18-β-glycyrrhetinic acid) except compound (5) which was at 0.80 mg/mL. 10 μL of each compound was applied to the ear. AA was applied alone, or followed immediately with 1-[3-O-(18-β-Glycyrrhetinic acid)]-2-(α-L-C-methylfucopyranose)-2',3'-propanediol (5) or 18-β-glycyrrhetinic acid. 90 minutes later a 6 mm disk of each ear was removed and weighed.

The subject of a further data set is E-Selectin. Description: E-Selectin chimera binding to fixed LS174T colon carcinoma cells. The conditions noted are these: for interference with cancer cell binding to E-selectin (in words): LS174T colon carcinoma cells; for pIC50: lowest concentration from serial two-fold dilutions which inhibits by 50% or more relative to control, range, read-out: IC50 of Compound in Assay of E-Selectin Binding To Fixed LS174T Colon Carcinoma Cells (Range). The data set is classed as cell-based. As to the method: Experiments were conducted to determine the capacity of the invention compounds to interfere with the binding of cancer cells to E-selectin. The compounds were dissolved in dimethylformamide (DMF) prior to being assayed. […] The mixture was rotated briskly on a rotary platform at room temperature for 30-60 minutes. Particulate matter was then removed by centrifugation, and the soluble fraction was transferred onto 96-well microtiter plates containing glutaraldehyde fixed LS174T colon carcinoma cells. […] Plates were developed in the dark and read at 405 nm. […] DMF (vehicle) typically had no effect. […] For all but 18-beta-glycyrrhetinic acid the compounds had low IC50 values, thus indicating their suitability for the treatment or prevention of certain forms of metastatic cancers.

Data set [2] relates to 5-lipoxygenase. The conditions noted are these: Sotomatsu et al. 1959; Inoue et al. 1986; cited from earlier work.
Data set [3] deals with P-selectin. Put plainly: Elisa of P-selectin binding to 2,3 sLex. The conditions noted are these: for pIC50: Elisa, P-selectin 300 ng/ml, read-out: IC50 for inhibiting P-selectin binding to 2,3 sLex. As for the experimental part:
(§1) In addition to E-selectin binding, certain of the invention compounds were tested for their capacity to inhibit P-selectin binding to cancer cells, and to a chemical known to bind to P-selectin, 2,3 sLex. The following materials and procedures were used.
(§2) Compound Preparation. Compound (5) of Example 5, and compound (8) of Example 8 were solubilized in DMF to yield a 100 mM solution.
(§3) P-Selectin Detection Solutions. Goat F(ab')2 anti-human IgG (Fc spec.)biotin and streptavidin-AP were diluted 1:1000 in 1% BSA-TBS with 1 mM Ca. An Elisa assay was utilized to measure P-selectin binding to 2,3 sLex, and P-selectin was added at 300 ng/ml. An Elisa assay was also used to assay for the capacity of the invention compounds to inhibit cancer cell binding to P-selectin. HL-60 cancer cells were used, and P-selectin was added at 200 ng/ml.
(§4) Plate Preparation. 2,3 sLex was coated at 30 pmoles/well to Probind microtiter plates for Elisa. The glycolipid was added at 50 μl/well in 50% MeOH and allowed to evaporate overnight. Elisa plates and HL-60 assay plates were blocked with 5% BSA-TBS Ca^++ for more than an hour at room temperature. The plates were washed with TBS without Ca^++.
Assay. Briefly, the assays were conducted as follows. Compounds (5) and (8) were added to P-selectin detection solutions at 4, 2, 1, 0.5, 0.25 and 0.125 mM for the HL-60 based assay, and at 2, 1, 0.5, 0.25, 0.125 and 0.063 mM for the assay involving 2,3 sLex. DMF solutions were added directly to 1% BSA/TBS-Ca for dilutions through 0.5 mM. Lower concentrations were made in serial two-fold dilutions in BSA-TBS. These solutions were incubated at room temperature on a rotating platform for 1 hour, centrifuged to pellet particulate matter, and then added in triplicate for 2,3 sLex coated plates, or quadruplicate for HL-60 cells at 50 μl/well. An equal volume of HL-60 cells was added to wells for the cell based assay. The 2,3 sLex coated plates were incubated at 37° C. for 45 minutes, washed 3× with TBS, and 50 μl of substrate added to each well. […]

The subject of data set [4] is P-selectin. Put plainly: P-selectin binding to HL-60 cells. Type of data set: cell-based. The conditions noted are these: HL-60 assay; for pIC50: P-selectin 200 ng/ml, read-out: IC50 for interfering with P-selectin binding to HL-60 cells. As to the method: as §1, §2, §3, §4
Cell Preparation. HL-60 cells were harvested by centrifugation, washed with TBS no Ca^++, counted, and the density adjusted to 2×10^6 /ml in 1% BSA-TBS Ca^++.
Assay. Briefly, the assays were conducted as follows. Compounds (5) and (8) were added to P-selectin detection solutions at 4, 2, 1, 0.5, 0.25 and 0.125 mM for the HL-60 based assay, and at 2, 1, 0.5, 0.25, 0.125 and 0.063 mM for the assay involving 2,3 sLex. DMF solutions were added directly to 1% BSA/TBS-Ca for dilutions through 0.5 mM. Lower concentrations were made in serial two-fold dilutions in BSA-TBS. These solutions were incubated at room temperature on a rotating platform for 1 hour, centrifuged to pellet particulate matter, and then added in triplicate for 2,3 sLex coated plates, or quadruplicate for HL-60 cells at 50 μl/well. An equal volume of HL-60 cells was added to wells for the cell based assay. The 2,3 sLex coated plates were incubated at 37° C. for 45 minutes, washed 3× with TBS, and 50 μl of substrate added to each well. Plates with HL-60 cells were incubated at 4° C. for 1 hour, the cells pelleted by centrifugation and washed 3× with TBS. For both assays, substrate was added at 75 μl/well. After color developed to an appropriate intensity, 50 μl/well was transferred to another plate for O.D. determination at 405 nm.

For data set [5] the following is noted: J. Med. Chem. (1974) 17(2):184-191; cited from earlier work.
Data set [6] concerns the target T1, 5-Lipoxygenase (Rattus norvegicus, UniProt P12527).
T1 construct: crude enzyme preparation from rat basophilic leukemia cells (RBL-1); endogenous in cells; host or cells: RBL-1 (rat basophilic leukemia cells)
T1 sequence (P12527 1-673): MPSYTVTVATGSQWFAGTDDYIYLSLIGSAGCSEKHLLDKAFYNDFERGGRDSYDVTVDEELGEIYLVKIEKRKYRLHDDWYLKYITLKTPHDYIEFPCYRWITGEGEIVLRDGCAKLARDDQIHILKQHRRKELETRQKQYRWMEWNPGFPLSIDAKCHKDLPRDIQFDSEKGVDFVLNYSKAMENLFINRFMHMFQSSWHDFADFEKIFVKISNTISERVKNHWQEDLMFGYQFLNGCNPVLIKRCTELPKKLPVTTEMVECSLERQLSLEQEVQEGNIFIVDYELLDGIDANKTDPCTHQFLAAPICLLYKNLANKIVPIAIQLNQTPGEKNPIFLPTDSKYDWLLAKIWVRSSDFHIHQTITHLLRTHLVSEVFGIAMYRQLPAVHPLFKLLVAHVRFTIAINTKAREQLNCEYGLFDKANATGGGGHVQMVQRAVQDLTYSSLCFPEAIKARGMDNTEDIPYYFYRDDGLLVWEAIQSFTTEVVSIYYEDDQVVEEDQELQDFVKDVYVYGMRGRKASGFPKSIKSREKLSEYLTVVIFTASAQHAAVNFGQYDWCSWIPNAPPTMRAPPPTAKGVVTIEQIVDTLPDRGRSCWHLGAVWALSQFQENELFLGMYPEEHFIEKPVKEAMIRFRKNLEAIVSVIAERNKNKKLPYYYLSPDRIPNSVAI
Put plainly: Inhibition of 5-Lipoxygenase, crude enzyme preparation from rat basophilic leukemia cells (RBL-1). The data set is classed as biochemical. As to the method: Thus, compounds that inhibit 5-lipoxygenase will have significant medical applications that require regulating or lowering leukotriene levels. Thus, the compounds of the instant invention were assayed for their capacity to inhibit 5-lipoxygenase. 5-Lipoxygenase assays were run using a crude enzyme preparation from rat basophilic leukemia cells (RBL-1) ([…]. and Samuelsson, B. Proc. Natl. Acad. Sci. […] W. and […]. Biol. Chem. (1985) 260:11554-11559). Test compounds were pre-incubated with the enzyme for 5 minutes at room temperature and the reaction is initiated by addition of substrate, […]. Following an 8 minute incubation at room temperature, the reaction was terminated by addition of NaOH, and absorbance read at 234 nm to determine levels of 5-HETE. Compounds were screened at 50 μM.

pIC50: −log10 of the molar value. Several values for one entry are separate records, joined by “and”; a condition that tells them apart may be missing. Identical values can stand only once. Entries after “also recorded” stand apart in the source; their conditions may differ.

These results are taken from patent US5679644A, “Methods of treating diseases using triterpenoid acid derivatives” (Glycomed Incorporated, priority 1995, dated 1997).

The term pIC50 denotes the IC50 on a negative log10 scale, so that one unit is a factor of ten. What is called inhibition is how much of the control response was suppressed. Higher therefore signals a response far below the control.

In the case of `CC(CO[C@H]1CC[C@]2(C)[C@H]3C(=O)C=C4[C@@H]5C[C@@](C)(C(=O)O)CC[C@]5(C)CC[C@@]4(C)[C@]3(C)CC[C@H]2C1(C)C)C[C@@H]1O[C@@H](C)[C@@H](O)[C@@H](O)[C@@H]1O` (stereo partly drawn) [(3), 1-[3-O-(18-β-Glycyrrhetinic acid)]-2-(α-L-C-methylfucopyranose)-propane], the “anti-inflammatory activity (in words)” value in data set [1] was “significant anti-inflammatory activity”. For the same compound, in the data set with E-Selectin, the “interference with cancer cell binding to E-selectin (in words)” value is recorded as “markedly lower IC50 values relative to 18-beta-glycyrrhetinic acid” and the pIC50 was 3.90 to 4.22.
In the case of `CC1(C)[C@@H](O)CC[C@]2(C)[C@H]3C(=O)C=C4[C@@H]5C[C@@](C)(C(=O)O)CC[C@]5(C)CC[C@@]4(C)[C@]3(C)CC[C@@H]12` [Glycyrrhetinic acid], in the data set on 5-lipoxygenase [2], the “inhibition of enzymes involved in leukotriene biosynthesis, including 5-lipoxygenase (in words)” value is on record as “shown to inhibit enzymes involved in leukotriene biosynthesis, including 5-lipoxygenase activity”.
As to `C[C@@H]1O[C@@H](CC(=O)CO[C@H]2CC[C@]3(C)[C@H]4C(=O)C=C5[C@@H]6C[C@@](C)(C(=O)O)CC[C@]6(C)CC[C@@]5(C)[C@]4(C)CC[C@H]3C2(C)C)[C@@H](O)[C@H](O)[C@@H]1O` [(8), 1-[3-O-(18-β-Glycyrrhetinic acid)]-2-oxo-2-(α-L-C-methylfucopyranose)-ethane], the “anti-inflammatory activity (in words)” value in data set [1] was “activity similar to compounds (3) and (5); also recorded: significant anti-inflammatory activity”. The pIC50 was 3.60 to 4.22 with E-Selectin, about 3.90 on P-selectin [3] and about 3.12 in the data set with P-selectin [4]. Besides, the “interference with P-selectin binding to HL-60 cells (in words)” value with P-selectin [4] is “interfered with P-selectin binding to HL-60 cells in a dose dependent way”.
Turning to `CC1(C)[C@@H](O)CC[C@]2(C)[C@H]3CC=C4[C@@H]5C[C@@](C)(C(=O)O)CC[C@]5(C)CC[C@@]4(C)[C@]3(C)CC[C@@H]12` [11-Deoxoglycyrrhetinic acid], in data set [5], the “aldosterone (DCA)-like activity (in words)” value is reported as “does not substantially show the DCA activity of the parent compound”.
Regarding `C[C@@H]1O[C@@H](CC(O)(CO)CO[C@H]2CC[C@]3(C)[C@H]4C(=O)C=C5[C@@H]6C[C@@](C)(C(=O)O)CC[C@]6(C)CC[C@@]5(C)[C@]4(C)CC[C@H]3C2(C)C)[C@@H](O)[C@H](O)[C@@H]1O` (stereo partly drawn) [Compound (5), 1-[3-O-(18-β-Glycyrrhetinic acid)]-2-(α-L-C-methylfucopyranose)-2',3'-propanediol], the “anti-inflammatory activity (in words)” value in data set [1] is listed as “significant anti-inflammatory activity”. In data set [1] (topical, 10 μL of 0.80 mg/mL solution, 90 minutes), the “percent inhibition of swelling caused by AA alone” value was “about 71%”. Besides, the “% Inhibition of Swelling” value in data set [1] (topical, arachidonic acid ear model, 800 μg applied) is 71.3%. Further, in the data set on E-Selectin, the “interference with cancer cell binding to E-selectin (in words)” value is on record as “markedly lower IC50 values relative to 18-beta-glycyrrhetinic acid” and the pIC50 is 3.90 to 4.22. Moreover, in the data set with P-selectin [3], the “inhibition of P-selectin binding to sLex (in words)” value is given as “did inhibit P-selectin binding to sLex, it was less effective than compound (8)”; the negative logarithm of the IC50 (pIC50) is > 3.00 and < 3.30. Further, in the data set with P-selectin [4], the “interference with P-selectin binding to HL-60 cells (in words)” value is recorded as “interfered with P-selecting binding to HL-60 cells in a dose dependent manner, but was again less effective than compound (8)” and the pIC50 was about 2.70. Moreover, on 5-Lipoxygenase [6], at 100 µM the inhibition was 20% and the inhibition at 1000 µM came to 74%. Besides, the “inhibitory activity relative to glycyrrhizin (in words)” value on 5-Lipoxygenase [6] (both concentrations tested) is “significantly greater inhibitory activity”.
For the compound `CC1(C)[C@@H](O)CC[C@]2(C)[C@H]3C(=O)C=C4[C@@H]5C[C@@](C)(C(=O)O)CC[C@]5(C)CC[C@@]4(C)[C@]3(C)CC[C@@H]12` [18-β-glycyrrhetinic acid], the pIC50 in the data set on E-Selectin is 3.30 to 3.90. At 5-Lipoxygenase [6], the inhibition at 100 µM was 36% and the inhibition at 1000 µM was found to be 81%.
On 5-Lipoxygenase [6], `CC1(C)[C@@H](O[C@H]2O[C@H](C(=O)O)[C@@H](O)[C@H](O)[C@H]2O[C@@H]2O[C@H](C(=O)O)[C@@H](O)[C@H](O)[C@H]2O)CC[C@]2(C)[C@H]3C(=O)C=C4[C@@H]5C[C@@](C)(C(=O)O)CC[C@]5(C)CC[C@@]4(C)[C@]3(C)CC[C@@H]12` [Glycyrrhizin] displayed an inhibition at 100 µM of 9% and an inhibition at 1000 µM of 31%.
